# Test results from patent US20240165170A1, “USE OF LACTIC ACID BACTERIUM SET FOR PREVENTING OR TREATING NSAID-INDUCED GASTRIC ULCER” (GRAPE KING BIO LTD., priority 2022, published 2024).
# “And” between values parts separate entries of the source, which are not always exact repeats. Equal entries are not always repeated.
# What was measured:
# ICR male mice = assay: aspirin-induced gastric ulcer test in ICR mice (ulcer area, ulcer index, cure rate, mucosal ulcer pathology); assay type: in vivo; set-up: key to Mucosal ulcer (pathological indicator, score per mouse): Grade 0 represents no ulcers occurred in normal tissue; Grade 1 represents less than ⅓ of superficial ulcer lesions in gastric mucosa; Grade 2 represents about ½ of superficial to middle ulcer lesions in gastric mucosa; Grade 3 represents about ⅔ of superficial to deep ulcer lesions in gastric mucosa; grade 4 represents gastric mucosal epithelial full-thickness ulcer and the lesion penetrates 3/3 of the muscle layer
# Protocol: A total of 24 ICR male mice purchased from BioLASCO (Lesco Biotechnology) were used as the experimental animals, each about 25 grams. The mice were kept in a general mouse cage, the room temperature was maintained at 22±3° C., the humidity was 55±15%, and the light and darkness were regularly 12 hours (12 hr light-dark cycle). Feed and sterile reverse osmosis water was allowed to be eaten by mice freely. Newly imported animals need to be observed for 3-5 days to ensure that there is no abnormality before testing. Before the experiment, the ICR mice were randomly grouped and caged, and each ICR mouse was marked with an ear number for identification and recording.
# (§1) 24 mice were divided into a blank control group, a negative control group, a positive control group and a lactic acid bacteria test group, and there were 6 mice in each group. The mice were administered once a day for 39 consecutive days. The blank control group and the negative control group were given drinking water, the positive control group was given 20 mg/kg Omeprazole, and the lactic acid bacteria test group was given GKD7 and GKA4 freeze-dried powder, each 10.2 mg/kg/day. On day 29, 500 mg/kg aspirin was administered to the negative control group, positive control group and lactic acid bacteria test group to induce gastric ulcer (the blank control group was not administered) for 10 days (D29-D39), and finally the mice were sacrificed on D40 and performed various analyses.
# (§2) The body weight of the mice was recorded every week, and after 39 consecutive days of administration, the mice were sacrificed with a high dose of Sutai 50 on the 40th day. The appearance, stomach tissues and organs of the mice were observed and made records.
# Ulcer area statistics: ImageJ software was utilized to circle the ulcer focus of gastric tissue to calculate the gastric ulcer focus area of each ICR mouse. Each ulcer focus can get different scores according to the size of the ulcer (see the table below):
# After each ulcer focus score is obtained, the application calculates the ulcer index of the mouse according to the following formula 1, and the higher the ulcer index, the more severe the ulcer.
# If the experimental group mice (positive control group, lactic acid bacteria test group) are compared with the negative control group mice and the area of gastric ulcer (ulcer index) is reduced, it means that the experimental group produces a healing effect. Dividing the ulcer index of the experimental group by the ulcer index of the negative control group obtains the ulcer improvement rate, which is then subtracted from 1 to get the healing rate (cure rate) compared with the negative control group. The calculation method is shown as the following formula 2: […]
# [1] = body weight change of mice during the test; assay type: in vivo; settings: between groups in the same period, p>0.05
# Protocol: as §1, §2
compound,measurement,setting,value
COc1ccc2[nH]c([S+]([O-])Cc3ncc(C)c(OC)c3C)nc2c1 (centres unmarked) [Omeprazole],ulcer area,"ICR male mice; ICR mice, once daily for 39 days, 500 mg/kg aspirin D29-D39, sacrificed D40, 6 mice per group",7.12±2.15 mm^2
same,ulcer index,"ICR male mice; ICR mice, once daily for 39 days, 500 mg/kg aspirin D29-D39, formula 1, higher index = more severe ulcer",2.57±0.67
same,Cure rate (%),ICR male mice; formula 2: 1 minus ulcer index of group / ulcer index of negative control group,53.25%
same,"Mucosal ulcer (pathological indicator, score per mouse)","ICR male mice; stomach histopathology, individual mice, grade 0-4, higher score = more serious damage, listed as Positive control group",0 and 1
same,body weight of mice during the test,[1],no significant difference
